Where a name gives a salt, the structure may show the parent alone. Read-outs that look alike come from different tables or passages of the source. Marks after values point to notes of the source that are not given here.
How the values were obtained:
roaches = assay type: in vivo, cockroaches
Procedure: An ˜500 mL jar is coated at the top with a thin film of petroleum jelly and covered with a plastic petri dish as a lid. […] The filter paper is bent in half to form a ‘tent’, as shown, so the roaches are not forced to contact the filter paper. The lid is removed, and a compound or composition to be tested is added to the top of the paper, at the bend. The lid is replaced and the insects monitored for activity at 15, 30, 45 minutes, then 1, 2, 4 and 24 hours post exposure.
This is done by taking multiple testes and plotting them on a dose-response curve such as the GraphPad® Prism® computer program. This program interpolates to find the midpoint of any sigmoidal dose-response curve.
The data in Table 1 can graphed as a sigmoidal dose response, much the same as any other biological data. […] The mid-Point of the dose-response curve is given by the computer and used to compare potencies. […] It is also necessary to understand the range of the testing. While the lower limit is in the 1 to 3 microliter range, the upper limit is about 250 microliters. Adding more material than that to the filter paper will allow the substance to drip onto the glass, where contact with the insects might occur. […] Several compounds are tested in a 2 liter (L) jar rather than the 0.5 L jars which are the primary assay.

[1] = test system: insects of the blattella species; assay: Direct contact spray knockdown; assay type: in vivo
From the text: A formula is created consisting exclusively of ethylene glycol diformate. This diformate is placed in aerosol cans and pressurized with carbon dioxide as propellant. This material, when sprayed on insects of the blattella species, results in knockdown in under 30 seconds. When administered in the vapor phase according to Example 1, in a 500 milliliter jar, 15 microliters of the formula in the vapor phase kills all the insects in one hour.
Raid (#271) Roach and Ant Killer and Treatment is purchased and repeatedly tested in the assay of Example 1, and in a direct contact test. It did knowndown both the peripleneta species (17.2+/−3.2 seconds) and the blattella species (kill time 16 seconds) when directly sprayed on the insects.

[2] = 5 µL, ~500 mL jar, 6 insects in this jar

O=COCCOC=O [ethylene glycol diformate]
Insects killed in the vapor phase (roaches; 15 microliters of the formula, 500 milliliter jar, one hour): all | LD50 (vapor phase) (roaches; in a 500 milliliter jar): approximately 7.5 microliters | Relative potency within the diformate ester series (in words) (roaches; in vivo): most potent compound of the series | Knockdown time when sprayed on insects [1]: under 30 seconds

Cc1coc2c1CC[C@@H](C)C2 [(+)-Menthofuran, (+) menthofuran]
LD50 (vapor phase) in a 2 L jar (roaches; 2 L jar): 15 microliters per 2 L headspace | Percent Dead Only at 4 hours (roaches; [2]): 33%* | Percent Dead at 24 hours (roaches; [2]): 33%* | Percent Distressed or Dead at 4 hours (roaches; [2]): 33%* | Percent Dead Only at 4 hours (roaches; 10 µL (repeat), ~500 mL jar): 40% | Percent Dead at 24 hours (roaches; 10 µL (repeat), ~500 mL jar): 40% | Percent Distressed or Dead at 4 hours (roaches; 10 µL (repeat), ~500 mL jar): 40% | Percent Dead Only at 4 hours (roaches; 10 µL, ~500 mL jar): 100% | Percent Dead at 24 hours (roaches; 10 µL, ~500 mL jar): 80% | Percent Distressed or Dead at 4 hours (roaches; 10 µL, ~500 mL jar): 100% | Percent Dead Only at 4 hours (roaches; 15 µL, ~500 mL jar): 100% | Percent Dead at 24 hours (roaches; 15 µL, ~500 mL jar): 100% | Percent Distressed or Dead at 4 hours (roaches; 15 µL, ~500 mL jar): 100% | Percent Dead Only at 4 hours (roaches; 20 µL, ~500 mL jar): 100% | Percent Dead at 24 hours (roaches; 20 µL, ~500 mL jar): 100% | Percent Distressed or Dead at 4 hours (roaches; 20 µL, ~500 mL jar): 100% | Percent Dead Only at 4 hours (roaches; 33 µL, ~500 mL jar): 100% | Percent Dead at 24 hours (roaches; 33 µL, ~500 mL jar): 100% | Percent Distressed or Dead at 4 hours (roaches; 33 µL, ~500 mL jar): 100% | LD50 (vapor phase) (roaches; ~500 mL jar): 7.2 microliters/500 milliliters headspace

CC(C)(C)OC=O [compound 2-1, tert-butyl formate]
24 hr LD50 (vapor phase) (roaches; ~500 mL jar): 40 microliters per 500 milliliters headspace

O=COC1CCCC1 [compound 2-2, cyclopentyl formate]
24 hr LD50 (vapor phase) (roaches; ~500 mL jar): 17 microliters per 500 milliliters headspace

C=CCc1ccc(O)c(OC)c1 [eugenol, reference compound]
LD50 (vapor phase) (roaches; ~500 mL jar): > 300 milligrams/500 milliliters

(R) (−) carvone
Fraction of the roaches that die in 24 hrs (roaches; individually tested at 29 milligrams/500 milliliters, 24 hrs): ⅕

Reference: US20050025795A1, “Compounds, Compositions and methods for insect control” (The Procter & Gamble Company, priority 2003, published 2005)
